Experiments:
Format in all cases: binding
[1] = ITC titration with D-glucose
Description: (§1) ITC experiments were carried out at 298 K. Saccharide solutions were prepared in HPLC-grade water with 10 mM phosphate buffer solution (pH 7.4) and allowed to equilibrate overnight if necessary. The sample cell was charged with a known concentration of receptor solution in HPLC-grade water with 10 mM phosphate buffer solution at pH 7.4 (typically 50 µM - 200 µM). Then, aliquots (typically 1.0 µL) of carbohydrate solution were added and the evolution of heat was followed as a function of time. Heats of dilution were measured by injecting the same carbohydrate solution into HPLC-grade water with 10 mM phosphate buffer solution at pH 7.4, using identical conditions. For every addition, the heat of dilution was subtracted from the heat of binding using a MicroCal software programme implemented in ORIGIN 7.0. This gave an XY matrix of heat vs. total guest concentration. This matrix was then imported into a specially written Excel programme to fit the data to a 1:1 binding model to give a Ka. ΔG can be derived from Ka and thus ΔS can be derived from ΔH and ΔG using common thermodynamic equations. […] This method consistently produced more accurate fits than fitting the data to an S-curve, as in the MicroCal software (S-curves are typically not observed for binding constants below ~104 - 105 M^-1).

[2] = ITC titration with methyl β-D-glucoside
Description: as §1

[3] = ITC titration with myo-inositol; conditions: 10 mM phosphate buffer pH 7.4, 298 K
Description: (§2) ITC experiments were carried out at 298 K. Saccharide solutions were prepared in HPLC-grade water with 10 mM phosphate buffer solution (pH 7.4) and allowed to equilibrate overnight if necessary. The sample cell was charged with a known concentration of receptor solution in HPLC-grade water with 10 mM phosphate buffer solution at pH 7.4 (typically 50 µM - 200 µM). Then, aliquots (typically 1.0 µL) of carbohydrate solution were added and the evolution of heat was followed as a function of time. Heats of dilution were measured by injecting the same carbohydrate solution into HPLC-grade water with 10 mM phosphate buffer solution at pH 7.4, using identical conditions. For every addition, the heat of dilution was subtracted from the heat of binding using a MicroCal software programme implemented in ORIGIN 7.0. This gave an XY matrix of heat vs. total guest concentration. This matrix was then imported into a specially written Excel programme to fit the data to a 1:1 binding model to give a Ka. ΔG can be derived from Ka and thus ΔS can be derived from ΔH and ΔG using common thermodynamic equations.

[4] = ITC titration with D-glucuronic acid; conditions: 10 mM phosphate buffer pH 7.4, 298 K
Description: (§3) Isothermal Titration (Micro)Calorimetry (ITC) experiments were performed on a MicroCal iTC200 microcalorimeter and/or a MicroCali VP-ITC. ITC experiments were carried out at 298 K. Saccharide solutions were prepared in HPLC-grade water and allowed to equilibrate overnight if necessary. The sample cell was charged with a known concentration of receptor solution in HPLC-grade water (typically 50 µM - 200 µM). Then, aliquots (typically 1.0 µL) of carbohydrate solution were added and the evolution of heat was followed as a function of time. Heats of dilution were measured by injecting the same carbohydrate solution into HPLC-grade water, using identical conditions. For every addition, the heat of dilution was subtracted from the heat of binding using a MicroCal software programme implemented in ORIGIN 7.0. This gave an XY matrix of heat vs. total guest concentration. This matrix was then imported into a specially written Excel programme to fit the data to a 1:1 binding model to give a Ka. ΔG can be derived from Ka, and ΔS can be derived from ΔH and ΔG using common thermodynamic equations. This method of analysis was used in conjunction with fits for Ka calculated using the MicroCal software to corroborate the results obtained.
(§4) Isothermal Titration MicroCalorimetry (ITC) experiments were performed on a MicroCal iTC200 microcalorimeter and/or a MicroCali VP-ITC. ITC experiments were carried out at 298 K. Saccharide solutions were prepared in HPLC-grade water with 10 mM phosphate buffer solution (pH 7.4) and allowed to equilibrate overnight if necessary. The sample cell was charged with a known concentration of receptor solution in HPLC-grade water with 10 mM phosphate buffer solution at pH 7.4 (typically 50 µM - 200 µM). Then, aliquots (typically 1.0 µL) of carbohydrate solution were added and the evolution of heat was followed as a function of time. Heats of dilution were measured by injecting the same carbohydrate solution into HPLC-grade water with 10 mM phosphate buffer solution at pH 7.4, using identical conditions. […]

[5] = ITC titration with D-xylose; conditions: 10 mM phosphate buffer pH 7.4, 298 K
Description: as §3, §4

[6] = ITC titration with 2-deoxy-D-glucose
Description: as §1

[7] = ITC titration with D-galactose; conditions: 10 mM phosphate buffer pH 7.4, 298 K
Description: as §3, §4

[8] = ITC titration with D-mannose; conditions: 10 mM phosphate buffer pH 7.4, 298 K
Description: as §3, §4

[9] = ITC titration with D-ribose; conditions: 10 mM phosphate buffer pH 7.4, 298 K
Description: as §3, §4

[10] = ITC titration with D-fructose; conditions: 10 mM phosphate buffer pH 7.4, 298 K
Description: as §1

[11] = ITC titration with D-cellobiose
Description: as §1

[12] = ITC titration with D-mannitol; conditions: 10 mM phosphate buffer pH 7.4, 298 K
Description: as §2

[13] = ITC titration with gluconate; conditions: Gluconate (from D-glucono-δ-lactone); 10 mM phosphate buffer pH 7.4, 298 K
Description: as §2

[14] = ITC titration with methyl α-D-glucoside; conditions: 10 mM phosphate buffer pH 7.4, 298 K
Description: as §2

[15] = ITC titration with N-acetyl-D-glucosamine; conditions: 10 mM phosphate buffer pH 7.4, 298 K
Description: as §2

[16] = ITC titration with D-maltose; conditions: 10 mM phosphate buffer pH 7.4, 298 K
Description: (§5) Isothermal Titration (Micro)Calorimetry (ITC) experiments were performed on a MicroCal iTC200 microcalorimeter and/or a MicroCali VP-ITC. ITC experiments were carried out at 298 K. Saccharide solutions were prepared in HPLC-grade water and allowed to equilibrate overnight if necessary. The sample cell was charged with a known concentration of receptor solution in HPLC-grade water (typically 50 µM - 200 µM). Then, aliquots (typically 1.0 µL) of carbohydrate solution were added and the evolution of heat was followed as a function of time. Heats of dilution were measured by injecting the same carbohydrate solution into HPLC-grade water, using identical conditions. For every addition, the heat of dilution was subtracted from the heat of binding using a MicroCal software programme implemented in ORIGIN 7.0. This gave an XY matrix of heat vs. total guest concentration. […] This method of analysis was used in conjunction with fits for Ka calculated using the MicroCal software to corroborate the results obtained.
(§6) Isothermal Titration MicroCalorimetry (ITC) experiments were performed on a MicroCal iTC200 microcalorimeter and/or a MicroCali VP-ITC. […] Heats of dilution were measured by injecting the same carbohydrate solution into HPLC-grade water with 10 mM phosphate buffer solution at pH 7.4, using identical conditions. […]

[17] = ITC titration with L-fucose; conditions: 10 mM phosphate buffer pH 7.4, 298 K
Description: as §5, §6

[18] = ITC titration with uracil; conditions: Uracil (PBS) pH 7.4, 298 K
Description: as §5, §6

[19] = ITC titration with uric acid; conditions: Uric Acid (PBS) pH 7.4, 298 K
Description: as §5, §6

[20] = ITC titration with cytosine; conditions: 10 mM phosphate buffer pH 7.4, 298 K
Description: as §5, §6

[21] = ITC titration with adenosine; conditions: 10 mM phosphate buffer pH 7.4, 298 K
Description: as §5, §6

[22] = ITC titration with paracetamol; conditions: 10 mM phosphate buffer pH 7.4, 298 K
Description: as §5, §6

[23] = ITC titration with ascorbic acid; conditions: 10 mM phosphate buffer pH 7.4, 298 K
Description: as §5, §6

[24] = ITC titration with L-phenylalanine; conditions: 10 mM phosphate buffer pH 7.4, 298 K
Description: as §5, §6

[25] = ITC titration with L-tryptophan; conditions: 10 mM phosphate buffer pH 7.4, 298 K
Description: as §5, §6

[26] = 1H NMR titration with D-glucose
Description: (§7) ^1H-NMR titrations were performed on a Varian VNMR cryogenically cooled S600 spectrometer. Solutions of saccharides in D2O (99.9%), containing receptor at a known concentration to be used in the experiment, were prepared and allowed to equilibrate overnight before use if necessary. Aliquots were then added to an NMR tube containing a known concentration of receptor solution (typically 100 µM - 400 µM). The receptor concentration was therefore held constant while the carbohydrate concentration was increased. The sample tube was shaken after each addition and ^1H-NMR spectra were acquired at 298 K.
^1H-NMR titrations were performed on a Varian VNMR cryogenically cooled S600 spectrometer. Solutions of saccharides in D2O (99.9%), containing receptor at a known concentration to be used in the experiment, were prepared and allowed to equilibrate overnight before use if necessary. Aliquots were then added to an NMR tube containing a known concentration of receptor solution (typically 50 µM - 250 µM). The receptor concentration was therefore held constant while the carbohydrate concentration was increased. The sample tube was shaken after each addition, centrifuged and ^1H-NMR spectra were acquired at 298 K.
If the receptor bound saccharide slower than the NMR sample rate (“slow exchange”), the Ka was determined by analysing the NMR integral of a peak assigned to the Host-Guest complex. The variable X was defined as the integral of an isolated resonance of the complex (typically in the aromatic region) divided by the integral of all the related resonances (typically the whole aromatic region). As X is proportional to fraction of host in the bound state, the change in X could be plotted as a function of the guest concentration to give a curve which could be fitted to a 1:1 binding model to yield the association constant Ka. Mathematically, the fitting process is essentially identical to that employed for binding with fast exchange, except that the integral of a peak due to the complex replaces the chemical shift of a peak due to bound + unbound receptor. The calculation was performed using a non-linear least squares curve-fitting programme implemented within Excel. The programme yields binding constants Ka and limiting X (Xlim) as output. An estimated error for Ka was obtained from individual data points by assuming the determined Ka and Xlim.

[27] = 1H NMR titration with myo-inositol; conditions: D2O, 10 mM phosphate buffer pH 7.4, 298 K
Description: as §7
(§8) ^1H-NMR titrations were performed on a Varian VNMR cryogenically cooled S600 spectrometer. Solutions of saccharides in D2O (99.9%), containing receptor at a known concentration to be used in the experiment, were prepared and allowed to equilibrate overnight before use if necessary. Aliquots were then added to an NMR tube containing a known concentration of receptor solution (typically 50 µM - 250 µM). The receptor concentration was therefore held constant while the carbohydrate concentration was increased. […]
(§9) If the receptor bound saccharide slower than the NMR sample rate (“slow exchange”), the Ka was determined by analysing the NMR integral of a peak assigned to the Host-Guest complex. […] An estimated error for Ka was obtained from individual data points by assuming the determined Ka and Xlim.

[28] = 1H NMR titration with D-cellobiose; conditions: [Host]total 110 µM
Source text: The integrals of the peak at 8.02 ppm (denoted with •, see FIG. 31) were made relative to integral of the same peak (8.02 ppm) when all receptor is assumed to be saturated with guest (i.e. the final addition in the titration, row denoted with yellow). These relative integrals are then used to determine the amount of Host-Guest [HG]. This value for [HG] along with calculated values for free host [H]free and free guest [G]free can be used to calculate the Ka at each point in the titration. […] Not all Ka values calculated were included in the averaged Ka value. The earlier integrations are unreliable due to the very small intensity of the peak at 8.02 ppm. The later integrations were also deemed unreliable due to large deviations in baseline of the spectra due to the large excess of guest present. The selected values for Ka used for the average calculation and the averaged Ka itself corroborate with the results obtained from ITC.

[29] = 1H NMR titration with 2-deoxy-D-glucose; conditions: D2O, 10 mM phosphate buffer pH 7.4, 298 K
Description: as §7, §8, §9

[30] = 1H NMR ROESY of receptor with D-glucose; conditions: receptor 2 mM with D-glucose 5 mM (2.5 equivalents) in D2O
Source text: Chemical exchange peaks (black, annotated) link CH protons on β-D-glucose in free and bound states. Signals for bound α-D-glucose were not observed under these conditions.

[31] = D-Glucose (DMEM cell culture), 10k MWCO, 10 mM phosphate buffer pH 7.4
[32] = D-Glucose (DMEM salt control), 10 mM phosphate buffer pH 7.4 with added salts
[33] = D-Glucose (Leibovitz’s L-15 cell culture), 10k MWCO, 10 mM phosphate buffer pH 7.4
[34] = D-Glucose (human serum), 10k MWCO, 10 mM phosphate buffer
[35] = D-Glucose, 10 mM phosphate buffer pH 7.4, 298 K
[36] = Methyl β-D-Glucoside, 10 mM phosphate buffer pH 7.4, 298 K
[37] = 2-Deoxy-D-Glucose, 10 mM phosphate buffer pH 7.4, 298 K
[38] = D-Cellobiose, 10 mM phosphate buffer pH 7.4, 298 K

## CCc1c2c(CC)c3c(CC)c1CNC(=O)Nc1ccc(C(=O)NC(CCC(=O)NC(CCC(=O)[O-])(CCC(=O)[O-])CCC(=O)[O-])(CCC(=O)NC(CCC(=O)[O-])(CCC(=O)[O-])CCC(=O)[O-])CCC(=O)NC(CCC(=O)[O-])(CCC(=O)[O-])CCC(=O)[O-])cc1NC(=O)NCc1c(CC)c(c(CC)c(c1CC)CNC(=O)Nc1cc(C(=O)NC(CCC(=O)NC(CCC(=O)[O-])(CCC(=O)[O-])CCC(=O)[O-])(CCC(=O)NC(CCC(=O)[O-])(CCC(=O)[O-])CCC(=O)[O-])CCC(=O)NC(CCC(=O)[O-])(CCC(=O)[O-])CCC(=O)[O-])ccc1NC(=O)NC3)CNC(=O)Nc1cc(C(=O)NC(CCC(=O)NC(CCC(=O)[O-])(CCC(=O)[O-])CCC(=O)[O-])(CCC(=O)NC(CCC(=O)[O-])(CCC(=O)[O-])CCC(=O)[O-])CCC(=O)NC(CCC(=O)[O-])(CCC(=O)[O-])CCC(=O)[O-])ccc1NC(=O)NC2.[Na+].[Na+].[Na+].[Na+].[Na+].[Na+].[Na+].[Na+].[Na+].[Na+].[Na+].[Na+].[Na+].[Na+].[Na+].[Na+].[Na+].[Na+].[Na+].[Na+].[Na+].[Na+].[Na+].[Na+].[Na+].[Na+].[Na+] [Receptor 1, Triethylbenzene Receptor]
[1]; [31]
  TΔS (Determined by ITC): 3.87 kcal/mol
  ΔG (Determined by ITC): -5.11 kcal/mol
  ΔH (Determined by ITC): -1.24 kcal/mol
[1]; [32]
  TΔS (Determined by ITC): 3.87 kcal/mol
  ΔG (Determined by ITC): -5.07 kcal/mol
  ΔH (Determined by ITC): -1.2 kcal/mol
[1]; [33]
  TΔS (Determined by ITC): 4.06 kcal/mol
  ΔG (Determined by ITC): -5.07 kcal/mol
  ΔH (Determined by ITC): -1 kcal/mol
[1]; [34]
  TΔS (Determined by ITC): 3.66 kcal/mol
  ΔG (Determined by ITC): -4.64 kcal/mol
  ΔH (Determined by ITC): -0.98 kcal/mol
[1]; D-Glucose pH 6 (PBS), 298 K
  Ka (Determined by ITC): 17,300 ± 3.8%
  TΔS (Determined by ITC): 5.16 kcal/mol
  ΔG (Determined by ITC): -5.78 kcal/mol
  ΔH (Determined by ITC): -0.621 kcal/mol
[1]; D-Glucose pH 7 (PBS), 298 K
  Ka (Determined by ITC): 17,800 ± 5.5%
  TΔS (Determined by ITC): 5.26 kcal/mol
  ΔG (Determined by ITC): -5.81 kcal/mol
  ΔH (Determined by ITC): -0.526 kcal/mol
[1]; D-Glucose pH 8 (PBS), 298 K
  Ka (Determined by ITC): 18,300 ± 1.8%
  TΔS (Determined by ITC): 5.21 kcal/mol
  ΔG (Determined by ITC): -5.81 kcal/mol
  ΔH (Determined by ITC): -0.621 kcal/mol
[1]; [35]
  Ka (Determined by ITC): 18,600 ± 14.3%
  TΔS (Determined by ITC): 3.97 kcal/mol
  ΔG (Determined by ITC): -5.83 kcal/mol
  ΔH (Determined by ITC): -1.86 kcal/mol
[1]; D-glucose in 10 mM PBS buffer (pH 6)
  Ka by ITC, fit calculated with the supplied ITC software: 19,800 ± 1290 M^-1
[1]; D-glucose in 10 mM PBS buffer (pH 7.4)
  Ka by ITC, fit calculated with the supplied ITC software: 19,100 ± 1310 M^-1
[1]; D-glucose in 10 mM PBS buffer (pH 8)
  Ka by ITC, fit calculated with the supplied ITC software: 23,400 ± 1850 M^-1
[1]; glucose in H2O
  Ka by ITC, fit calculated with the supplied ITC software: 21,000 ± 2640 M^-1
[2]; [36]
  TΔS (Determined by ITC): 5.07 kcal/mol
  ΔG (Determined by ITC): -5.31 kcal/mol
  ΔH (Determined by ITC): -0.765 kcal/mol
[2]; methyl-β-D-glucoside in H2O
  Ka by ITC, fit calculated with the supplied ITC software: 9120 ± 542 M⁻¹
[3]
  TΔS (Determined by ITC): -0.574 kcal/mol
  ΔG (Determined by ITC): -5.28 kcal/mol
[4]
  TΔS (Determined by ITC): -1.55 kcal/mol
  ΔG (Determined by ITC): -5.09 kcal/mol
  ΔH (Determined by ITC): -6.64 kcal/mol
[5]
  TΔS (Determined by ITC): 3.23 kcal/mol
  ΔG (Determined by ITC): -5.14 kcal/mol
  ΔH (Determined by ITC): -1.91 kcal/mol
[6]; [37]
  TΔS (Determined by ITC): 3.2 kcal/mol
  ΔG (Determined by ITC): -3.9 kcal/mol
  ΔH (Determined by ITC): -0.693 kcal/mol
[6]; 2-deoxy-D-glucose in H2O
  Ka by ITC, fit calculated with the supplied ITC software: 657 ± 90 M⁻¹
[7]
  TΔS (Determined by ITC): 1 kcal/mol
  ΔG (Determined by ITC): -3.08 kcal/mol
  ΔH (Determined by ITC): -2.1 kcal/mol
[8]
  TΔS (Determined by ITC): 0.14 kcal/mol
  ΔG (Determined by ITC): -2.94 kcal/mol
  ΔH (Determined by ITC): -2.82 kcal/mol
[9]
  TΔS (Determined by ITC): -2.32 kcal/mol
  ΔG (Determined by ITC): -3.18 kcal/mol
  ΔH (Determined by ITC): -5.5 kcal/mol
[10]
  TΔS (Determined by ITC): -2.27 kcal/mol
  ΔG (Determined by ITC): -2.53 kcal/mol
  ΔH (Determined by ITC): -4.78 kcal/mol
[11]; [38]
  TΔS (Determined by ITC): -0.17 kcal/mol
  ΔG (Determined by ITC): -2.03 kcal/mol
  ΔH (Determined by ITC): -2.2 kcal/mol
[11]; cellobiose in H2O
  Ka by ITC, fit calculated with the supplied ITC software: 36.6 ± 2.5 M⁻¹
[12]
  Ka (Determined by ITC): 0 M⁻¹
[13]
  Ka (Determined by ITC): 0 M⁻¹
[14]
  Ka (Determined by ITC): 0 M⁻¹
[15]
  Ka (Determined by ITC): 0 M⁻¹
[16]
  Ka (Determined by ITC): 0 M⁻¹
[17]
  Ka (Determined by ITC): 0 M⁻¹
[18]
  Ka (Determined by ITC): 0 M⁻¹
[19]
  Ka (Determined by ITC): 0 M⁻¹
[20]
  Ka (Determined by ITC): 0 M⁻¹
[21]
  Ka (Determined by ITC): 0 M⁻¹
[22]
  Ka (Determined by ITC): 0 M⁻¹
[23]
  Ka (Determined by ITC): 0 M⁻¹
[24]
  Ka (Determined by ITC): 0 M⁻¹
[25]
  Ka (Determined by ITC): 0 M⁻¹
[26]; D2O with no added salts
  Saturation of receptor on addition of 2 equivalents (0.2 mM) of D-glucose (1H NMR): did saturate the receptor
[26]; with MgSO4 (0.8 mM) and CaCl2 (1.8 mM), D2O, 10 mM phosphate buffer pH 7.4, 298 K
  Saturation of receptor on addition of 2 equivalents (0.2 mM) of D-glucose (1H NMR): did not saturate the receptor
[27]
  Ka (Determined by NMR): 7328 ± 7.4%
[28]; [Guest]total 20 mM
  Ka calculated at titration point (NMR): 0.55 M⁻¹
[28]; [Guest]total 39 mM
  Ka calculated at titration point (NMR): 29.0 M⁻¹
[28]; [Guest]total 58 mM
  Ka calculated at titration point (NMR): 31.2 M⁻¹
[28]; [Guest]total 96 mM
  Ka calculated at titration point (NMR): 29.4 M⁻¹
[28]; [Guest]total 132 mM
  Ka calculated at titration point (NMR): 34.9 M⁻¹
[28]; [Guest]total 167 mM
  Ka calculated at titration point (NMR): 81.5 M⁻¹
[28]; [Guest]total 251 mM
  Ka calculated at titration point (NMR): 74.0 M⁻¹
[28]; [Guest]total 329 mM
  Ka calculated at titration point (NMR): 386 M⁻¹
[29]
  Binding implied by 1H NMR spectra (no Ka determinable): binding with intermediate rate of exchange
[30]
  Signals for bound α-D-glucose (ROESY): not observed

From patent US20230365514A1, “MACROCYCLIC COMPOUNDS” (NOVO NORDISK RESEARCH CENTRE OXFORD LIMITED, priority 2017, published 2023)
